Results on twelve compounds are retold here after PubChem BioAssay (NCI).

Structures are written as SMILES. “And” between values parts separate entries of the source, which are not always exact repeats. Equal entries are not always repeated.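 Step 1: Grow cells in 96-well plates. Step 2: Expose to compound for 48 hours at 5 concentrations. Step 3: Interpolate endpoints linearly; if unreached, use highest concentration. GI50 is the concentration that inhibits growth by half. TGI marks complete inhibition of growth.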

Test systems include SNB-19 CNS; MDA-MB-435; BT-549 breast; ACHN renal; SK-MEL-5 melanoma; DU-145 prostate; SF-295 CNS; MCF7 breast; NCI-H23 lung; UACC-62 melanoma.
Common to all, as to experiment: NCI tumour cell line growth inhibition, 48 h

As for `COc1cc2c(cc1OCCCCCCN1CCN(CC(=O)Nc3ccc(Cl)cc3C(=O)c3ccccc3Cl)CC1)N=CC1CCCN1C2=O` (stereo not given), the GI50 is 0.244 µM in the assay with SNB-19 CNS; 0.157 µM in the assay on MDA-MB-435; 0.252 µM in the assay with BT-549 breast; 0.3 µM in the assay with ACHN renal; 0.513 µM in the assay with SK-MEL-5 melanoma; 0.254 µM in the assay on DU-145 prostate. For the same compound, the GI50 with SF-295 CNS was 0.18 µM; in the assay on MCF7 breast, 0.153 µM; in the assay on NCI-H23 lung, 0.198 µM; in the assay with UACC-62 melanoma, 0.408 µM. Also, the TGI in the assay on SNB-19 CNS came out at 0.632 µM; in the assay with MDA-MB-435 it was 0.304 µM; in the assay on BT-549 breast, 0.898 µM; in the assay with ACHN renal, 0.765 µM; with SK-MEL-5 melanoma, 0.942 µM; in the assay on DU-145 prostate, 0.715 µM. For the same compound, the TGI with SF-295 CNS amounted to 0.461 µM; with MCF7 breast, 0.321 µM; in the assay on NCI-H23 lung it was 0.468 µM; in the assay with UACC-62 melanoma, 0.975 µM.
On to `CCOc1c(N=Nc2ccccc2Cl)c(-c2ccccc2)nn1C(=S)S`, for which the TGI was over 100 µM in the assay with SNB-19 CNS; over 100 µM with MDA-MB-435; over 100 µM with BT-549 breast; over 100 µM in the assay with ACHN renal; 57.9 µM in the assay with SK-MEL-5 melanoma; over 100 µM in the assay on DU-145 prostate. Moreover, the TGI with SF-295 CNS, with MCF7 breast, with NCI-H23 lung and with UACC-62 melanoma was over 100 µM in each case.
In the case of `O=c1/c(=C\c2ccc(F)cc2)sc2n1C(c1ccc(F)cc1)C1=C(N=2)c2ccc3ccccc3c2OCC1` (stereo not given), the GI50 in the assay with SNB-19 CNS is over 100 µM; in the assay on MDA-MB-435 it was over 100 µM; in the assay on BT-549 breast, over 64.5 µM; in the assay on ACHN renal it was over 100 µM; in the assay on SK-MEL-5 melanoma it was over 100 µM; in the assay with DU-145 prostate, over 100 µM. In addition, the GI50 with SF-295 CNS, with MCF7 breast, in the assay on NCI-H23 lung and in the assay with UACC-62 melanoma was over 100 µM in each case. Also, the TGI with SNB-19 CNS, with MDA-MB-435, in the assay with BT-549 breast, in the assay with ACHN renal, with SK-MEL-5 melanoma and with DU-145 prostate was over 100 µM throughout. In addition, the TGI with SF-295 CNS, in the assay with MCF7 breast, in the assay with NCI-H23 lung and in the assay on UACC-62 melanoma was over 100 µM in each case.
As for `CC(C)=CCC(OC(=O)C=C(C)C)C1=CC(=O)c2c(O)ccc(O)c2C1=O` (stereo not given), the GI50 with SNB-19 CNS is 21.9 µM; with MDA-MB-435 it was 2.09 µM; with BT-549 breast, 0.59 µM; with ACHN renal, 0.605 µM; in the assay on SK-MEL-5 melanoma, 4.15 µM; in the assay on DU-145 prostate, 1.72 µM. Further, the GI50 was 2.15 µM in the assay with SF-295 CNS; 2.09 µM and 0.877 µM in the assay with MCF7 breast; 2.46 µM and 1.06 µM with NCI-H23 lung; 1.67 µM in the assay with UACC-62 melanoma. Moreover, the TGI is 40.2 µM and 15.3 µM in the assay with SNB-19 CNS; 4.77 µM in the assay with MDA-MB-435; 1.98 µM with BT-549 breast; 2.53 µM in the assay on ACHN renal; 14.4 µM and 1.59 µM in the assay on SK-MEL-5 melanoma; 3.92 µM in the assay with DU-145 prostate. Further, the TGI is 20.9 µM and 6.13 µM with SF-295 CNS; 7.86 µM and 2.93 µM in the assay with MCF7 breast; 7.06 µM and 2.96 µM in the assay with NCI-H23 lung; 3.1 µM and 2.4 µM with UACC-62 melanoma.
For `OCc1ccc(-c2cscc2-c2ccc(CO)o2)o1`, the GI50 with SNB-19 CNS was over 100 µM; in the assay with MDA-MB-435, over 100 µM; in the assay on BT-549 breast, over 87.5 µM; in the assay with ACHN renal, over 100 µM; with SK-MEL-5 melanoma, 16.2 µM; in the assay with DU-145 prostate it was 25.9 µM. For the same compound, the GI50 with SF-295 CNS is 0.923 µM; in the assay with MCF7 breast, 0.57 µM; in the assay with NCI-H23 lung, 64.6 µM; in the assay on UACC-62 melanoma it was 0.435 µM. The TGI in the assay on SNB-19 CNS, in the assay with MDA-MB-435, in the assay on BT-549 breast, in the assay with ACHN renal, with SK-MEL-5 melanoma and in the assay with DU-145 prostate was over 100 µM throughout. Besides, the TGI in the assay on SF-295 CNS was 20.3 µM; in the assay on MCF7 breast, 25.1 µM; in the assay with NCI-H23 lung, over 100 µM; in the assay on UACC-62 melanoma it was 2.2 µM.
Consider `O=C1CC(c2[nH]nc3ccccc23)C(=O)N1c1ccccc1` (stereo not given), for which the TGI in the assay on SNB-19 CNS, with MDA-MB-435, in the assay with BT-549 breast, in the assay on ACHN renal, with SK-MEL-5 melanoma and in the assay with DU-145 prostate was over 100 µM each time. Besides, the TGI in the assay on SF-295 CNS, with MCF7 breast, in the assay on NCI-H23 lung and in the assay on UACC-62 melanoma was over 100 µM throughout.
`CN(C)c1nc2ccccc2c2c1c1c(n2Cc2ccccc2)-c2ccccc2C1=O`: the GI50 in the assay with SNB-19 CNS was over 100 µM; in the assay on MDA-MB-435, over 100 µM; in the assay on BT-549 breast it was over 100 µM; in the assay with ACHN renal, over 100 µM; in the assay with SK-MEL-5 melanoma it was 39.1 µM; in the assay on DU-145 prostate it was over 100 µM. Further, the GI50 in the assay with SF-295 CNS was over 100 µM; with MCF7 breast, 71.4 µM; in the assay on NCI-H23 lung, over 100 µM; in the assay with UACC-62 melanoma it was over 100 µM. Also, the TGI with SNB-19 CNS, in the assay on MDA-MB-435, in the assay with BT-549 breast, in the assay on ACHN renal, with SK-MEL-5 melanoma and with DU-145 prostate was over 100 µM each time. The TGI in the assay on SF-295 CNS, in the assay on MCF7 breast, in the assay on NCI-H23 lung and in the assay with UACC-62 melanoma was over 100 µM in each case.
For `S=c1nc(N/N=C/c2ccco2)c2cn[nH]c2[nH]1`, the GI50 with SNB-19 CNS was over 100 µM; in the assay with MDA-MB-435, 45.7 µM; with BT-549 breast, 75.2 µM; with ACHN renal, over 100 µM; with SK-MEL-5 melanoma, 28.2 µM; in the assay on DU-145 prostate, 61.8 µM. For the same compound, the GI50 in the assay on SF-295 CNS was over 100 µM; in the assay on MCF7 breast, 3.6 µM; in the assay with NCI-H23 lung it was over 100 µM; in the assay on UACC-62 melanoma, 33.8 µM. The TGI with SNB-19 CNS, in the assay with MDA-MB-435, in the assay with BT-549 breast, with ACHN renal, in the assay on SK-MEL-5 melanoma and with DU-145 prostate was over 100 µM each time. Also, the TGI with SF-295 CNS, with MCF7 breast, in the assay with NCI-H23 lung and in the assay on UACC-62 melanoma was over 100 µM throughout.
On to `Cc1c2cc(Cl)c3ccccc3c2c[n+]2ccccc12`, for which the GI50 in the assay with SNB-19 CNS was 0.525 µM; in the assay on MDA-MB-435 it was 4.1 µM; in the assay on BT-549 breast it was 1.21 µM; with ACHN renal it was 22 µM; with SK-MEL-5 melanoma, 1.22 µM; in the assay on DU-145 prostate, 12.8 µM. The GI50 with SF-295 CNS was 0.813 µM; with MCF7 breast, 2.28 µM; with NCI-H23 lung, 2.74 µM; with UACC-62 melanoma, 2.61 µM. The TGI with SNB-19 CNS was 2.76 µM; with MDA-MB-435 it was 17.9 µM; in the assay with BT-549 breast, 5.4 µM; in the assay with ACHN renal it was over 100 µM; with SK-MEL-5 melanoma, 2.92 µM; with DU-145 prostate it was 31.6 µM. Also, the TGI in the assay with SF-295 CNS was 6.58 µM; with MCF7 breast it was 15 µM; with NCI-H23 lung, 23.5 µM; with UACC-62 melanoma, 13.3 µM.
In the case of `COC(=O)COc1ccc(/C=C2/N=C(c3ccccc3)N(c3c(C)n(C)n(-c4ccccc4)c3=O)C2=O)cc1`, the GI50 was 36.3 µM in the assay with SNB-19 CNS; 19.7 µM in the assay with MDA-MB-435; 17.1 µM in the assay with BT-549 breast; 17.6 µM with ACHN renal; 26 µM in the assay with SK-MEL-5 melanoma; 16.6 µM in the assay with DU-145 prostate. For the same compound, the GI50 in the assay on SF-295 CNS is 33.5 µM; in the assay on MCF7 breast, 14.1 µM; with NCI-H23 lung it was 57.5 µM; in the assay on UACC-62 melanoma, 17.6 µM. For the same compound, the TGI in the assay with SNB-19 CNS was over 100 µM; in the assay with MDA-MB-435, 47 µM; with BT-549 breast, 42 µM; with ACHN renal, 31.4 µM; in the assay with SK-MEL-5 melanoma it was 60.7 µM; in the assay on DU-145 prostate, 30.2 µM. The TGI in the assay on SF-295 CNS was over 100 µM; with MCF7 breast, 32.9 µM; in the assay on NCI-H23 lung, over 100 µM; in the assay on UACC-62 melanoma, 32.1 µM.
Regarding `c1ccc2c(-c3nc(-c4c[nH]c5ccncc45)cs3)c[nH]c2c1`, the GI50 in the assay with SNB-19 CNS was 2.18 µM; with MDA-MB-435 it was 1.75 µM; in the assay on BT-549 breast, 8.82 µM; in the assay with ACHN renal, 1.72 µM; in the assay with SK-MEL-5 melanoma, 1.6 µM; in the assay on DU-145 prostate, 3.36 µM. For the same compound, the GI50 in the assay on SF-295 CNS was 1.58 µM; with MCF7 breast, 1.43 µM; in the assay with NCI-H23 lung, 1.85 µM; in the assay with UACC-62 melanoma, 1.67 µM. Also, the TGI in the assay with SNB-19 CNS came out at 5.12 µM; in the assay on MDA-MB-435 it was 3.23 µM; with BT-549 breast, 21.3 µM; in the assay on ACHN renal, 3.36 µM; in the assay on SK-MEL-5 melanoma, 2.99 µM; in the assay on DU-145 prostate, 11.3 µM. The TGI is 3.2 µM with SF-295 CNS, 3.16 µM in the assay with MCF7 breast, 5 µM in the assay with NCI-H23 lung and 3.33 µM with UACC-62 melanoma.
Take `CN(C)CCSS(=O)(=O)O`: the TGI in the assay on SNB-19 CNS, in the assay with MDA-MB-435, in the assay with BT-549 breast, in the assay on ACHN renal, in the assay with SK-MEL-5 melanoma and in the assay with DU-145 prostate was over 100 µM in each case. Moreover, the TGI was 94.4 µM in the assay on SF-295 CNS, over 100 µM in the assay on MCF7 breast, over 100 µM with NCI-H23 lung and over 100 µM in the assay with UACC-62 melanoma.
